IC50 data for 31 compounds are collected here from patent publication US20230357269A1 (LES LABORATOIRES SERVIER, priority 2020, published 2023).

Bounds are passed on as bounds.

human recombinant LRRK2 protein, sequence (Q5S007 whole entry): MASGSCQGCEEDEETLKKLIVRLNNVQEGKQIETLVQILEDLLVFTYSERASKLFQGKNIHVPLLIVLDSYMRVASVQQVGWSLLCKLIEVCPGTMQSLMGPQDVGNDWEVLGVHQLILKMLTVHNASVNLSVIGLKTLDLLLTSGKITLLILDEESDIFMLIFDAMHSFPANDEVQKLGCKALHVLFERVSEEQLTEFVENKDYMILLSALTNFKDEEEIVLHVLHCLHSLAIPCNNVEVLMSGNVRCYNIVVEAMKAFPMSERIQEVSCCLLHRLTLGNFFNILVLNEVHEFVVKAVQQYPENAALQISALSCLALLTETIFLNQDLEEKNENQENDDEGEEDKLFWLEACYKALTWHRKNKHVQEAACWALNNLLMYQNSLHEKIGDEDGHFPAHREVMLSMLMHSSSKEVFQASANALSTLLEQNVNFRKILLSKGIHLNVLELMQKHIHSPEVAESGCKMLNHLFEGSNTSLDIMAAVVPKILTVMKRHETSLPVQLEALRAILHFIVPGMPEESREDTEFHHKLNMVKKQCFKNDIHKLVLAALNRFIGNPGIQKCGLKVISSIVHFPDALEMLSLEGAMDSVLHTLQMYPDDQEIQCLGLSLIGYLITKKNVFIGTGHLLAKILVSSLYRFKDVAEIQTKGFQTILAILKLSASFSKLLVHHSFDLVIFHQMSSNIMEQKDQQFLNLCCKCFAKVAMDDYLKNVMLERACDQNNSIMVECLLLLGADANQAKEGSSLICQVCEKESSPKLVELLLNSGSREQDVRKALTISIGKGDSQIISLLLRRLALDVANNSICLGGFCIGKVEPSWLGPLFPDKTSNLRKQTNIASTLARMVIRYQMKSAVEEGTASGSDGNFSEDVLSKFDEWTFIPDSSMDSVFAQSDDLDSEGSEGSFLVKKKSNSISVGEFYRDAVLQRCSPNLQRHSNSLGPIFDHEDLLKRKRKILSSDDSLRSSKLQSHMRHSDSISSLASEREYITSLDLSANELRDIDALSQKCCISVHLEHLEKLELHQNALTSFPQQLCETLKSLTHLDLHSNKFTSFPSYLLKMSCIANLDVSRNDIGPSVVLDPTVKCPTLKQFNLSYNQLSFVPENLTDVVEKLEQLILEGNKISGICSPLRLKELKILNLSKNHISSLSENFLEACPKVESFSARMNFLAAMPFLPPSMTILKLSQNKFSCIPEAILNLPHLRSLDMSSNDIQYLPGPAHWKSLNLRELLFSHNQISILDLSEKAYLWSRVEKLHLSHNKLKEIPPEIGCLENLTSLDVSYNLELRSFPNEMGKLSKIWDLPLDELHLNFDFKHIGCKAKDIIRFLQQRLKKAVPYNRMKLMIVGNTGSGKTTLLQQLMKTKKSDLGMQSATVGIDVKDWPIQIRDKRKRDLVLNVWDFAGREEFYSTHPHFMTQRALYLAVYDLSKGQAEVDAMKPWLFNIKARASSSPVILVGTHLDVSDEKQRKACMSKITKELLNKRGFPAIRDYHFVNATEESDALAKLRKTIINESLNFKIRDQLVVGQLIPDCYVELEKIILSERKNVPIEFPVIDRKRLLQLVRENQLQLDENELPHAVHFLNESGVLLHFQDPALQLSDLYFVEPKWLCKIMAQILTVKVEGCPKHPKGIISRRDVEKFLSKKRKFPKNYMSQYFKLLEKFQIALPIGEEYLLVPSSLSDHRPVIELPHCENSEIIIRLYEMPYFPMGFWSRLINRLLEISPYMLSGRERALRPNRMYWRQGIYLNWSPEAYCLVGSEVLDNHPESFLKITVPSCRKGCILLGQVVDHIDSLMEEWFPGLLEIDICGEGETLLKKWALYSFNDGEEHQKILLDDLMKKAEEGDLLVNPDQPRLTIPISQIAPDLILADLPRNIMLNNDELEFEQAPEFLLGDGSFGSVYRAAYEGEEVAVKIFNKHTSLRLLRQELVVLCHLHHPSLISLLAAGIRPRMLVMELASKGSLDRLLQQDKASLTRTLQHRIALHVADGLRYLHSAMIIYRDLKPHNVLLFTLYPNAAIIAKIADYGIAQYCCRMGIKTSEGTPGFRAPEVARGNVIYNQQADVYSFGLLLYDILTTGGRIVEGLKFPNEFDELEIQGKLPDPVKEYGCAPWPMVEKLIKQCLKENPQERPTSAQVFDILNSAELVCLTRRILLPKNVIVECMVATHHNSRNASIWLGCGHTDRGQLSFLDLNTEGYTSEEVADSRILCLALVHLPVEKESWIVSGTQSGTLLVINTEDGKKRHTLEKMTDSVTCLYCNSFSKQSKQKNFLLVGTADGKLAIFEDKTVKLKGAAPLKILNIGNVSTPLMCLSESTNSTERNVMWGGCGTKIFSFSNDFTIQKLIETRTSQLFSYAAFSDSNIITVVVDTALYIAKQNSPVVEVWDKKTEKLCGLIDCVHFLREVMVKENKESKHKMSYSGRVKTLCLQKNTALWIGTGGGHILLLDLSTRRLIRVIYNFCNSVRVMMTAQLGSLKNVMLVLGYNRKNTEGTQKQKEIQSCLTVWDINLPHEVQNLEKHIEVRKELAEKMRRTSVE

The experiment addresses human recombinant LRRK2 protein (Homo sapiens (Human), UniProt Q5S007). The experiment in a line: LRRK2 Kinase Activity Assay (ADP-Glo). The class given is biochemical. The settings on record: LRRK2 wt; LRRKtide peptide and ATP substrates; 1h-incubation at 37° C. The procedure, abridged: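 Recombinant human LRRK2 acted on LRRKtide peptide and ATP for 1 h at 37 °C. ADP formed was detected by ADP-Glo luminescence (ATP depletion, then ADP-to-ATP conversion and luciferase). IC50s came from curve fits over 10 concentrations (N=2).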
The term IC50 denotes the concentration that inhibits the measured activity by half. On to `CC1OC(=O)NCCCOc2ccc3[nH]nc(c3c2)-c2cncc1c2` (stereo not shown) [Example 107, 7-methyl-8,14-dioxa-4,10,19,20-tetraazatetracyclo[13.5.2.1^2,6.0^18,21]tricosa-1(20),2,4,6(23),15,17,21-heptaen-9-one], for which the IC50 was under 10 nM.
With `CC1COC(=O)NCCCOc2ccc3[nH]nc(c3c2)-c2cnn1c2` (stereo not shown) [Example 110, 6-methyl-8,14-dioxa-4,5,10,19,20-pentaazatetracyclo[13.5.2.1^2,5.0^18,21]tricosa-1(20),2(23),3,15,17,21-hexaen-9-one] the figure was under 10 nM.
Consider `CC1OC(=O)NCCCOc2ccc3[nH]nc(c3c2)-c2cccc1n2` (stereo not shown) [Example 111, 7-methyl-8,14-dioxa-10,19,20,23-tetraazatetracyclo[13.5.2.1^2,6.0^18,21]tricosa-1(20),2,4,6(23),15,17,21-heptaen-9-one], for which the IC50 lay in the range of 10 to 100 nM.
`CC(C)C1COC(=O)NCCCOc2ccc3[nH]nc(c3c2)-c2cnn1c2` (stereo not shown) [Example 112, 6-(propan-2-yl)-8,14-dioxa-4,5,10,19,20-pentaazatetracyclo[13.5.2.1^2,5.0^18,21]tricosa-1(20),2(23),3,15(22),16,18(21)-hexaen-9-one]: the IC50 is 10 to 100 nM.
For the compound `CC1Cn2cc(cn2)-c2n[nH]c3ccc(cc23)O[C@H](C)CCNC(=O)O1` (stereo partly drawn) [Example 113, (13R)-7,13-dimethyl-8,14-dioxa-4,5,10,19,20-pentaazatetracyclo[13.5.2.1^2,5.0^18,21]tricosa-1(20),2(23),3,15(22),16,18(21)-hexaen-9-one], the IC50 is under 10 nM.
As for `C[C@@H]1CCNC(=O)OCc2cccc(n2)-c2n[nH]c3ccc(cc23)O1` [Example 114, (13R)-13-methyl-8,14-dioxa-10,19,20,23-tetraazatetracyclo[13.5.2.1^2,6.0^18,21]tricosa-1(20),2,4,6(23),15,17,21-heptaen-9-one], the IC50 is under 10 nM.
With `C[C@@H]1CCNC(=O)OCc2cc(ccn2)-c2n[nH]c3ccc(cc23)O1` [Example 117, (13R)-13-methyl-8,14-dioxa-5,10,19,20-tetraazatetracyclo[13.5.2.1^2,6.0^18,21]tricosa-1(20),2,4,6(23),15,17,21-heptaen-9-one] the figure was under 10 nM.
The value for `O=C1NCCCOc2ccc3[nH]nc(c3c2)-c2cnn(c2)C(C2CCOCC2)CO1` (stereo not shown) [Example 118, 6-(oxan-4-yl)-8,14-dioxa-4,5,10,19,20-pentaazatetracyclo[13.5.2.1^2,5.0^18,21]tricosa-1(20),2(23),3,15,17,21-hexaen-9-one] was 100 to 1000 nM; that for `CCC1CC2=NN1CCOC(=O)NCCCOc1ccc3[nH]nc2c3c1` (stereo not shown) [Example 119, 4-ethyl-8,14-dioxa-5,10,19,20,23-pentaazatetracyclo[13.5.2.1^2,5.0^18,21]tricosa-1(20),2(23),15,17,21-pentaen-9-one] was 10 to 100 nM.
The value for `C[C@@H]1CCNC(=O)OCc2cccc(c2F)-c2n[nH]c3ccc(cc23)O1` [Example 120, (13R)-23-fluoro-13-methyl-8,14-dioxa-10,19,20-triazatetracyclo[13.5.2.1^2,6.0^18,21]tricosa-1(20),2,4,6(23),15,17,21-heptaen-9-one] was 100 to 1000 nM; that for `O=C1NCCOc2ccc3[nH]nc(c3c2)-c2cnn(c2)CCCO1` [Example 121, 9,14-dioxa-4,5,11,19,20-pentaazatetracyclo[13.5.2.1^2,5.0^18,21]tricosa-1(20),2(23),3,15,17,21-hexaen-10-one] was 100 to 1000 nM; that for `CCc1cc2nn1CCOC(=O)NCCCOc1ccc3[nH]nc-2c3c1` [Example 122, 4-ethyl-8,14-dioxa-5,10,19,20,23-pentaazatetracyclo[13.5.2.1^2,5.0^18,21]tricosa-1(20),2(23),3,15,17,21-hexaen-9-one] was under 10 nM.
Regarding `O=C1NCCCOc2ccc3[nH]nc(c3c2)-c2cc(no2)CCCO1` [Example 123, 3,9,15-trioxa-4,11,20,21-tetraazatetracyclo[14.5.2.1^2,5.0^19,22]tetracosa-1(21),2(24),4,16,18,22-hexaen-10-one], the IC50 was under 10 nM.
The value for `C[C@@H]1CCNC(=O)OCc2cncc(c2)-c2n[nH]c3cc(F)c(cc23)O1` [Example 124, (13R)-16-fluoro-13-methyl-8,14-dioxa-4,10,19,20-tetraazatetracyclo[13.5.2.1^2,6.0^18,21]tricosa-1(20),2,4,6(23),15,17,21-heptaen-9-one] was under 10 nM; that for `C[C@@H]1CCNC(=O)OCc2cc(Cl)cc(n2)-c2n[nH]c3ccc(cc23)O1` [Example 125, (13R)-4-chloro-13-methyl-8,14-dioxa-10,19,20,23-tetraazatetracyclo[13.5.2.1^2,6.0^18,21]tricosa-1(20),2(23),3,5,15(22),16,18(21)-heptaen-9-one] was under 10 nM; that for `O=C1NCCCOc2ccc3[nH]nc(c3c2)-n2cnc(c2)CCO1` [Example 126, 8,14-dioxa-2,4,10,19,20-pentaazatetracyclo[13.5.2.1^2,5.0^18,21]tricosa-1(20),3,5(23),15(22),16,18(21)-hexaen-9-one] was 10 to 100 nM.
`COc1cc2nc(c1)-c1n[nH]c3ccc(cc13)O[C@H](C)CCNC(=O)OC2` [Example 127, (13R)-4-methoxy-13-methyl-8,14-dioxa-10,19,20,23-tetraazatetracyclo[13.5.2.1^2,6.0^18,21]tricosa-1(20),2,4,6(23),15,17,21-heptaen-9-one]: the IC50 is under 10 nM.
The value for `C[C@@H]1CCNC(=O)OCc2cc(ccc2C#N)-c2n[nH]c3ccc(cc23)O1` [Example 128, (13R)-13-methyl-9-oxo-8,14-dioxa-10,19,20-triazatetracyclo[13.5.2.1^2,6. 0^18,21]tricosa-1(20),2,4,6(23),15,17,21-heptaene-5-carbonitrile] was under 10 nM; that for `C[C@@H]1CCNC(=O)OCc2nc(cc(N3CCCC3)n2)-c2n[nH]c3ccc(cc23)O1` [Example 129, (13R)-13-methyl-4-(pyrrolidin-1-yl)-8,14-dioxa-5,10,19,20,23-pentaaza tetracyclo[13.5.2.1^2,6.0^18,21]tricosa-1(20),2,4,6(23),15,17,21-heptaen-9-one] was under 10 nM; that for `C[C@@H]1CCNC(=O)OCc2cccc(c2)-c2n[nH]c3cc(F)c(cc23)O1` [Example 132, (13R)-16-fluoro-13-methyl-8,14-dioxa-10,19,20-triazatetracyclo[13.5.2.1^2,6.0^18,21]tricosa-1(20),2,4,6(23),15,17,21-heptaen-9-one] was under 10 nM.
With `C[C@@H]1CCNC(=O)OCc2cncc(n2)-c2n[nH]c3ccc(cc23)O1` [Example 133, (13R)-13-methyl-8,14-dioxa-4,10,19,20,23-pentaazatetracyclo[13.5.2.1^2,6.0^18,21]tricosa-1(20),2,4,6(23),15,17,21-heptaen-9-one] the figure was under 10 nM.
Take `O=C1NCCCOc2ccc3[nH]nc(c3c2)-c2csc(n2)CCO1` [Example 134, 8,14-dioxa-4-thia-10,19,20,23-tetraazatetracyclo[13.5.2.1^2,5.0^18,21]tricosa-1(20),2,5(23),15,17,21-hexaen-9-one]: the IC50 is under 10 nM.
As to `O=C1NCCCOc2ccc3[nH]nc(c3c2)-c2nc(cs2)CCO1` [Example 135, 8,14-dioxa-3-thia-10,19,20,23-tetraazatetracyclo[13.5.2.1^2,5.0^18,21]tricosa-1(20),2(23),4,15,17,21-hexaen-9-one], the IC50 is under 10 nM.
The value for `C[C@@H]1CCNC(=O)O[C@H](C)c2cccc(n2)-c2n[nH]c3ccc(cc23)O1` [Example 136, (7R,13R)-7,13-dimethyl-8,14-dioxa-10,19,20,23-tetraazatetracyclo[13.5.2.1^2,6.0^18,21]tricosa-1(20),2,4,6(23),15,17,21-heptaen-9-one] was under 10 nM.
The value for `CO[C@@H]1CCN(c2cc3nc(n2)COC(=O)NCC[C@@H](C)Oc2ccc4[nH]nc-3c4c2)C1` [Example 137, (13R)-4-[(3R)-3-methoxypyrrolidin-1-yl]-13-methyl-8,14-dioxa-5,10,19,20,23-pentaazatetracyclo[13.5.2.1^2,6.0^18,21]tricosa-1(20),2,4,6(23),15,17,21-heptaen-9-one] was under 10 nM; that for `C[C@@H]1CCNC(=O)OCc2cccc(c2)-c2n[nH]c3cc(Cl)c(cc23)O1` [Example 138, (13R)-16-chloro-13-methyl-8,14-dioxa-10,19,20-triazatetracyclo[13.5.2.1^2,6.0^18,21]tricosa-1(20),2,4,6(23),15,17,21-heptaen-9-one] was under 10 nM.
The value for `Cc1cc2[nH]nc3c2cc1O[C@H](C)CCNC(=O)OCc1cccc-3c1` [Example 139, (13R)-13,16-dimethyl-8,14-dioxa-10,19,20-triazatetracyclo[13.5.2.1^2,6.0^18,21]tricosa-1(20),2,4,6(23),15,17,21-heptaen-9-one] was under 10 nM; that for `C[C@@H]1CCNC(=O)OCc2ccnc(n2)-c2n[nH]c3ccc(cc23)O1` [Example 140, (13R)-13-methyl-8,14-dioxa-3,10,19,20,23-pentaazatetracyclo[13.5.2.1^2,6.0^18,21]tricosa-1(20),2,4,6(23),15,17,21-heptaen-9-one] was 10 to 100 nM; that for `O=C1NCCCNc2ccc3[nH]nc(c3c2)-c2cccc(c2)CO1` [Example 141, 8-oxa-10,14,19,20-tetraazatetracyclo[13.5.2.1^2,6.0^18,21]tricosa-1(20),2(23), 3,5,15(22),16,18(21)-heptaen-9-one] was 100 to 1000 nM.
For the compound `O=C1NCCCCc2ccc3[nH]nc(c3c2)-c2cccc(c2)CO1` [Example 142, 8-oxa-10,19,20-triazatetracyclo[13.5.2.1^2,6.0^18,21]tricosa-1(20),2(23),3,5, 15(22),16,18(21)-heptaen-9-one], the IC50 was under 10 nM.
`COc1ncc2cc1COC(=O)NCC[C@@H](C)Oc1ccc3[nH]nc-2c3c1` [Example 143, (13R)-5-methoxy-13-methyl-8,14-dioxa-4,10,19,20-tetraazatetracyclo[13.5.2.1^2,6.0^18,21]tricosa-1(20),2,4,6(23),15,17,21-heptaen-9-one]: the IC50 was under 10 nM.
